Experimental findings from ChEMBL document CHEMBL1201862, “PubChem BioAssay data set” (2004) are described below.

Assay [1] addresses T1, Tyrosyl-DNA phosphodiesterase 2 (Homo sapiens, UniProt O95551).
T1 sequence (O95551 whole entry): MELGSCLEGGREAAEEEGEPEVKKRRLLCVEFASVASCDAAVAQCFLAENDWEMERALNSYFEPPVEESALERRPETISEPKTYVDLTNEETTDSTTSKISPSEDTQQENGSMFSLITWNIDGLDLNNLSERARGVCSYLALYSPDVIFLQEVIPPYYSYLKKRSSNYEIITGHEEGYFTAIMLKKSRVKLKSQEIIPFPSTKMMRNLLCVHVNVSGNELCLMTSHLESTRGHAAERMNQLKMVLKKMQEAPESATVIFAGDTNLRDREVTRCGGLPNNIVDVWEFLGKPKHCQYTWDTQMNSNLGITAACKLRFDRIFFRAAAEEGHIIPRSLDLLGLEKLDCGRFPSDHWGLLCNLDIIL
The assay can be described thus: human TDP2 enzyme inhibitors, dose response, biochemical, epi absorbance, IC50 (AID 743297).

For assay [2], the target named is T2, Replicative DNA helicase DnaB (Mycobacterium tuberculosis, UniProt P9WMR3).
T2 sequence (P9WMR3 whole entry): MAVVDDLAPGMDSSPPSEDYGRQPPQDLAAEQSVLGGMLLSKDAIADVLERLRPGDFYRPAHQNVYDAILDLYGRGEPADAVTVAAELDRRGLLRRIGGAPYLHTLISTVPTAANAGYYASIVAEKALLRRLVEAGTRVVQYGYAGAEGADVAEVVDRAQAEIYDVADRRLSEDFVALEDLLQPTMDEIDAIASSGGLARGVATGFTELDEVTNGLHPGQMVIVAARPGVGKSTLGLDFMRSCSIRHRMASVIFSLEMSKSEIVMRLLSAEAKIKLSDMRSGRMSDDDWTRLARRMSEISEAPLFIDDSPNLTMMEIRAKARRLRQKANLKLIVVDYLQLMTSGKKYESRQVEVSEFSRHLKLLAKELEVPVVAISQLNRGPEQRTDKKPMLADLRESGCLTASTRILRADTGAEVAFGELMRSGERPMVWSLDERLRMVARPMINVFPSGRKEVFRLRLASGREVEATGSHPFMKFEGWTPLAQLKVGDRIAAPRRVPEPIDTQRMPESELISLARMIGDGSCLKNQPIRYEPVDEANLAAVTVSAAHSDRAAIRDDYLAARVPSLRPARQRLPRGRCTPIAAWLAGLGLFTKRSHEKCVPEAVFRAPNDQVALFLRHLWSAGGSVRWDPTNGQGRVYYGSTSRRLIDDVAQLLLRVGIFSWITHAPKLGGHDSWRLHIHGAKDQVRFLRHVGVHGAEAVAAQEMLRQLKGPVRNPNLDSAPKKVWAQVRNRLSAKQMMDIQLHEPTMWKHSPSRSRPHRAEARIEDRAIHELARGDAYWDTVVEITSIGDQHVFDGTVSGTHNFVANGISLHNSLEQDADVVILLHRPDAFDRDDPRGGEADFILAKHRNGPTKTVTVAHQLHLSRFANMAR
Kind of assay: DnaB intein splicing inhibitors, dose response, biochemical, cell-free fluorescence (AID 449749). It counts as functional.

The target of assay [3] is T3, Sentrin-specific protease 6 (Homo sapiens, UniProt Q9GZR1).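 Also: Luminescence-based dose-response confirmatory assay of SENP6 inhibition, following up an ultra-high-throughput screen.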
T3 sequence (Q9GZR1 whole entry): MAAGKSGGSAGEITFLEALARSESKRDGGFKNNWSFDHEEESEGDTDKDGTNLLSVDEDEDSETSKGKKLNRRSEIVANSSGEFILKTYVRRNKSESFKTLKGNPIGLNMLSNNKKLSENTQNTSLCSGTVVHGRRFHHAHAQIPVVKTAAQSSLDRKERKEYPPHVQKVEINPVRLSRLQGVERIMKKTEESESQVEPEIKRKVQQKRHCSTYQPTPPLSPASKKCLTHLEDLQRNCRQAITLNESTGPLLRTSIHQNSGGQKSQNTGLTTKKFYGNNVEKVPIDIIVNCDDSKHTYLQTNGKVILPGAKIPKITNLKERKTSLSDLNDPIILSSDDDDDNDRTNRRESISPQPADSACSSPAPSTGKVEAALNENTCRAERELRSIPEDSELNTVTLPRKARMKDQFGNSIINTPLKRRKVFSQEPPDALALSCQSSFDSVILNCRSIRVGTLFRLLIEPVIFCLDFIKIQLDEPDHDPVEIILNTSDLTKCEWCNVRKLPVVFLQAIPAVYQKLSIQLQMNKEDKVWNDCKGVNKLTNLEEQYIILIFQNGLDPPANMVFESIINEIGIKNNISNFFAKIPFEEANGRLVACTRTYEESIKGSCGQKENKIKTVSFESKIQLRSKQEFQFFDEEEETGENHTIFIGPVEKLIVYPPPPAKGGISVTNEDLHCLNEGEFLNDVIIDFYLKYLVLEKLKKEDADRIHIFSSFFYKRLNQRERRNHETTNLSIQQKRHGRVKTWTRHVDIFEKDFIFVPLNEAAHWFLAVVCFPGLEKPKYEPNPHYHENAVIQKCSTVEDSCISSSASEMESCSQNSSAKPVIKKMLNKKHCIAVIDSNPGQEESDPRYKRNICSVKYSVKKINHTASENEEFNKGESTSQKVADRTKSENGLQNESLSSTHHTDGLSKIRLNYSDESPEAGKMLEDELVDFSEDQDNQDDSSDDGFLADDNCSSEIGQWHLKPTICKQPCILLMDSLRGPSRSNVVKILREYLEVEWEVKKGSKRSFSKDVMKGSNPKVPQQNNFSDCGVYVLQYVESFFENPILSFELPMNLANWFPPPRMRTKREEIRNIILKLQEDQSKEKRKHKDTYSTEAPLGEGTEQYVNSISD
Type of assay: functional.

In assay [4] the target is T4, Sentrin-specific protease 8 (Homo sapiens, UniProt Q96LD8).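 Also: luminescence read-out of SENP8 inhibition, dose-response confirmation following an ultra-high-throughput screen.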
T4 sequence (Q96LD8 whole entry): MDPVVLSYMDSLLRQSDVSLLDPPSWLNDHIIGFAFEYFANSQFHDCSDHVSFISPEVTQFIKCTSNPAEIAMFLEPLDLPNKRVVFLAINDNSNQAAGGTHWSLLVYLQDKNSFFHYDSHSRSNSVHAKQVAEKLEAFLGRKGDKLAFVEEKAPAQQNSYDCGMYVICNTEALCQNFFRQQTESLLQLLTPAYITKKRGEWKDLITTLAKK
Type of assay: functional.

Calls of active or inactive are those of the source.

Consider `O=C1/C(=N\c2cccc(O)c2)C(N2CCCCC2)=C(O)c2ccccc21`, for which the IC50 in assay [1] was > 42.8 µM (inactive). For the same compound, the half-maximal activity concentration (AC50) in assay [2] was 5.58 µM (active).

`Cc1cc(/C=C2\SC(=S)N(C)C2=O)c(C)n1-c1ccc(O)cc1`: the half-maximal inhibitory concentration (IC50) in assay [3] is 4.66 µM (active); in assay [4] it was 8.79 µM (active).

As to `COC(=O)c1cccc(-c2ccc(C(c3c(C)n[nH]c3O)c3c(C)n[nH]c3O)o2)c1`, the IC50 in assay [1] is > 128 µM (inactive). In addition, in assay [2], the AC50 is 0.398 µM (active).

Regarding `Cc1ccc(C(=O)NNc2cc(N3CCCC3)nc(N3CCCC3)n2)cc1`, the IC50 in assay [3] was 0.838 µM (active); in assay [4], 4.6 µM (active).

The term IC50 denotes the concentration at which inhibition is half-maximal. As a reminder, the AC50 is the concentration giving half of the maximal activity seen.
